Reference: patent US4175125A, “Method for treating methicillin resistant staphylococcus aureus” (Eli Lilly and Company, priority 1978, dated 1979)
≈ marks a conversion by molar mass, not a printed value. Structures can show the parent of a compound that is named as a salt. Where two headings read alike, the source gives them in different places.

Tested on: methicillin-resistant Staphylococcus aureus
Test: Gradient plate test (MIC) against methicillin-resistant Staphylococcus aureus
Format: cell-based
Settings: for MIC: Staphylococcus aureus
Description: The method used is essentially that described by Bryson and Szybalski in 1952 (Science 116:45-46). The inoculum treatment method used for penicillin resistant Staphylococci was reported by Godzeski et al in Antimicrobial Agents and Chemotherapy, May, 1969, pp. 547-554.
A standard Falcon square plastic petri dish is used. A layer of agar (10 ml.) is poured into one of the square dishes, the dish tipped 5 mm. off the horizontal, and the agar layer allowed to harden in this position. This bottom layer of agar contains the antibiotic, the serum, and/or other material to be tested. The medium is Difco Penassay Agar containing 2 percent agar. We routinely used 4 ml. of human or horse serum for "serum-inactivation" testing. […] Therefore, serum is routinely added only to the bottom layer.
After the bottom, slanted layer of agar medium has hardened, the plate is placed flat and another 10 ml. of medium added and allowed to harden.
The inoculum of resistant Staphylococci, as described, is prepared by diluting the water suspension 1/50 in 0.25 percent agar in sterile water or saline. For Gram negative organisms, an overnight broth culture is diluted 1/50 in the 0.25 percent agar-water. This dilution is thoroughly shaken to evenly suspend the bacteria. To streak the plate, we use a 1 ml. pipet containing an aliquot of the final […] agar dilution. After a little practice, a smooth even stroke of inoculum can be laid down very rapidly. The trick is in the smoothness of the streak--it must be accomplished uniformly and quickly.
After 24 hours incubation at 35°-37° C. the plates are read by simply measuring the length of bacterial growth as a percentage of the entire streak distance which is then converted to the percent of antibiotic concentration in the plate.
Average values of duplicate measurements are calculated and the M.I.C.'s reported are average of 2 streaks on the plate and from 2 to 3 duplicate plates. Eight streaks can be easily placed on each plate. If sharp end points are not obtained, the middle concentration between the beginning of inhibition of the streak to the end of growth is measured. The concentration of the antibiotic under examination is varied from plate to plate in a series as follows: […]
This method of screening penicillins and cephalosporins is quite satisfactory. Control plates containing penicillin and staphcillin or prostaphlin, or other control antibiotic, are used daily for the resistant staphylococcal activity screen. The gradient plate method has shown differences between antibiotics that were not apparent by any other methods of screening. […] We believe that the gradient plate screen is more sensitive to small differences between related antibiotics than other methods and pictures of the plates can provide a permanent record. The method also lends itself readily to modification of specific purposes--e.g., cross gradients.
The compounds listed below are examples of compounds useful in the method of this invention. After the compound name there is given in parentheses, where tested, the minimum inhibitory concentrations (MIC) in micrograms per milliliter (μg/ml) for the compound in the above described gradient plate procedure test against methicillin-resistant Staphylococcus aureus, (in the absence of blood serum/in the presence of 20 percent blood serum).
and pharmaceutically acceptable salts thereof. The abbreviation "s.z." means skip zones.

[1] = in the absence of blood serum, read-out: minimum inhibitory concentration (MIC)
[2] = in the presence of 20 percent blood serum, read-out: minimum inhibitory concentration (MIC)
[3] = in the presence of 20 percent blood serum

MIC [1] [µg/mL]	MIC [2] [µg/mL]	minimum inhibitory concentration (MIC) [3]	SMILES	MIC (read-out: minimum inhibitory concentration (MIC), in the absence of blood serum) [µg/mL]	MIC (read-out: minimum inhibitory concentration (MIC), in the presence of 20 percent blood serum) [µg/mL]
2.4 (≈ 4.38 µM)	> 20		Cn1nnnc1SCC1=C(C(=O)O)N2C(=O)C(NC(=O)CSc3ccc(Cl)c(Cl)c3)[C@H]2SC1 (some centres unmarked) [Example 5, 7-[2-(3,4-dichlorophenylthio)acetamido]-3-(1-methyltetrazol-5-yl-thiomethyl)-3-cephem-4-carboxylic acid]		
4.1 (≈ 8.33 µM)	1.7		NC(=O)OCC1=C(C(=O)O)N2C(=O)C(NC(=O)CSc3cc(Cl)ccc3Cl)[C@H]2SC1 (some centres unmarked) [3-carbamyloxymethyl-7-[2'-(2",5"-dichlorophenylthio)acetamido]-3-cephem-4-carboxylic acid]		
4.4			COc1ccc(-c2nnc(SCC3=C(C(=O)O)N4C(=O)C(NC(=O)CSc5cc(Cl)ccc5Cl)C4SC3)o2)cc1 (centres unmarked) [3-[5'-(p-methoxyphenyl)-1',3',4'-oxadiazol-5'-ylthiomethyl]-7-[2'-(2",5"-dichlorophenylthio)acetamido]-3-cephem-4-carboxylic acid, sodium salt]		
0.8	> 1		O=C(CSc1cc(Cl)ccc1Cl)NC1C(=O)N2C(C(=O)O)=C(CSc3nnc(-c4ccccc4)o3)CSC12 (centres unmarked) [3-[5'-phenyl-1',3',4'-oxadiazol-2'-ylthiomethyl]-7-[2'-(2"-5"-dichlorophenylthio)acetamido]-3-cephem-4-carboxylic acid, dicyclohexylamine salt]		
1.9	> 20		Cn1nnnc1SCC1=C(C(=O)O)N2C(=O)C(NC(=O)CSc3cc(F)c(Cl)cc3Cl)C2SC1 (centres unmarked) [3-(1'-methyl-1'H-tetrazol-5'-ylthiomethyl)-7-[2'-[2",4"-dichloro-5"-fluorophenylthio)acetamido]-3-cephem-4-carboxylic acid, dicyclohexylamine salt]		
10.6 (≈ 24.1 µM)	9.3		CC(=O)OCC1=C(C(=O)O)N2C(=O)C(NC(=O)CSc3cccc(F)c3)C2SC1 (centres unmarked) [7-[2'-(3"-fluorophenylthio)acetamido]cephalosporanic acid]		
4.5	> 20		Cc1nnc(SCC2=C(C(=O)O)N3C(=O)C(NC(=O)CSc4cc(Cl)cc(Cl)c4)C3SC2)s1 (centres unmarked) [3-(5'-methyl-1',3',4'-thiadiazol-2'-ylthiomethyl)-7-[2'-(3",5"-dichlorophenylthio)acetamido]-3-cephem-4-carboxylic acid, sodium salt]		
2.2		skip zones	Cn1nnnc1SCC1=C(C(=O)O)N2C(=O)C(NC(=O)CSc3cc(Cl)cc(Cl)c3)C2SC1 (centres unmarked) [3-[1'-methyl-1'H-tetrazol-5'-ylthiomethyl]-7-[2'-(3",5"-dichlorophenylthio)acetamido]-3-cephem-4-carboxylic acid, dicyclohexylamine salt]		
1.2	> 20		Cc1nnc(SCC2=C(C(=O)O)N3C(=O)C(NC(=O)CSc4ccc(Cl)c(Cl)c4)C3SC2)s1 (centres unmarked) [3-(5'-methyl-1',3',4'-thiadiazol-2'-ylthiomethyl)-7-[2'-(3",4"-dichlorophenylthio)acetamido]-3-cephem-4-carboxylic acid, dicyclohexylamine salt]		
3 (≈ 5.89 µM)	> 20		CC(=O)OCC1=C(C(=O)O)N2C(=O)C(NC(=O)CSc3cc(F)c(Cl)cc3Cl)C2SC1 (centres unmarked) [Example 4, 7(2,4-Dichloro-5-fluoro-phenylthioacetamido)cephalosporanic acid]		
2.3		skip zones	Cn1nnnc1SCC1=C(C(=O)O)N2C(=O)C(NC(=O)CSc3cc(Cl)ccc3Cl)C2SC1 (centres unmarked) [3-(1'-methyl-1'H-tetrazol-5'-ylthiomethyl)-7-[2'-(2",5"-dichlorophenylthio)acetamido]-3-cephem-4-carboxylic acid, dicyclohexylamine salt]		
			CSCC1=C(C(=O)[O-])N2C(=O)C(NC(=O)CSc3cc(Cl)ccc3Cl)[C@H]2SC1.[Na+] (some centres unmarked) [3-methylthiomethyl-7-[2'-(2",5"-dichlorophenylthio)acetamido]-3-cephem-4-carboxylic acid, sodium salt]	12	14.4
6.8 (≈ 12.7 µM)	> 1		O=C(CSc1cc(Cl)ccc1Cl)NC1C(=O)N2C(C(=O)O)=C(CSc3nn[nH]n3)CSC12 (centres unmarked) [3-(1'H-tetrazol-5'-ylthiomethyl)-7-[2'-(2",5"-dichlorophenylthio)acetamido]-3-cephem-4-carboxylic acid]		
2.3	> 20		Cc1nnc(SCC2=C(C(=O)O)N3C(=O)C(NC(=O)CSc4cc(F)c(Cl)cc4Cl)C3SC2)s1 (centres unmarked) [3-(5'-methyl-1',3',4'-thiadiazol-2'-ylthiomethyl)-7-[2'-(2",4"-dichloro-5"- fluorophenylthio)acetamido]-3-cephem-4-carboxylic acid, sodium salt]		
5.5 (≈ 10.9 µM)	18.2		CNC(=O)OCC1=C(C(=O)O)N2C(=O)C(NC(=O)CSc3cc(Cl)ccc3Cl)C2SC1 (centres unmarked) [Example 7, 7(2,5-dichlorophenylmercaptoacetamido)-3-(N-methylcarbamoyloxymethyl)-Δ^3-cephalosphoranic acid]		
3.9	> 20		O=C(CSc1cc(Cl)ccc1Cl)NC1C(=O)N2C(C(=O)O)=C(CSc3nnc(-c4ccc([N+](=O)[O-])cc4)o3)CSC12 (centres unmarked) [3-[5'-(p-nitrophenyl)-1',3',4'-oxadiazol-2'-ylthiomethyl]-7-[2'-(2",5"-dichlorophenylthio)actamido]-3-cephem-4-carboxylic acid, sodium salt]		
2	5.2		CC(=O)OCC1=C(C(=O)O)N2C(=O)C(NC(=O)CSc3cccc(Cl)c3)C2SC1 (centres unmarked) [7-m-Chlorophenylthioacetamidocephalosporanic acid, potassium salt]		
1.8	> 1		Cc1nnc(SCC2=C(C(=O)O)N3C(=O)C(NC(=O)CSc4cc(Cl)ccc4Cl)C3SC2)s1 (centres unmarked) [3-(5'-methyl-1',3',4'-thiadiazol-2'-ylthiomethyl)-7-[2'-(2",5"-dichlorophenylthio)acetamido]-3-cephem-4-carboxylic acid, sodium salt]		
